In patent US6825230B2, “Spiro and dispiro 1,2,4-trixolane antimalarials” (Medicines for Malaria Venture MMV, priority 2002, dated 2004):
Values after ≈ are worked out from the molar mass of the structure shown.

How the values were obtained:
[1] = test system: chloroquine-resistant K1 strain of P. falciparum; test: In vitro antimalarial semiautomated microdilution assay ([3H]-hypoxanthine incorporation), K1 strain; type: cell-based, Plasmodium falciparum; settings: Plasmodium falciparum; chloroquine-resistant K1 strain, 72 h incubation; read-out: IC50 (ng/ml) K1
Procedure, shortened: (§1)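 Logit regression analysis yields the fifty percent inhibitory concentration. Compounds are tested by semiautomated microdilution on intraerythrocytic parasites drawn from asynchronous stock cultures, measuring [3H]-hypoxanthine incorporation.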

[2] = test system: chloroquine-sensitive NF54 strain of P. falciparum; test: In vitro antimalarial semiautomated microdilution assay ([3H]-hypoxanthine incorporation), NF54 strain; type: cell-based, Plasmodium falciparum; settings: Plasmodium falciparum; chloroquine-sensitive NF54 strain, 72 h incubation; read-out: IC50 (ng/ml) NF54
Procedure, shortened: as §1

[3] = test system: ANKA strain of P. berghei; test: Single dose STI in vivo screen in infected mice; parameters: species or system Plasmodium berghei; settings: for Survival (days) 3 mg/kg SSV po / Activity (%) 3 mg/kg SSV po: single 3 mg/kg po in SSV; for Activity (%) 3 mg/kg SSV po / Activity (%) 10 mg/kg SSV po: percent reduction in parasitemia on day 3; for Survival (days) 10 mg/kg SSV po: single 10 mg/kg po in SSV, untreated 6-7 days; for Activity (%) 10 mg/kg SSV po: single 10 mg/kg po in standard suspending vehicle (SSV) on day 1 post-infection
[4] = test system: Schistosoma mansoni adult worms (49-day-old); test: Effect on adult schistosomes (49-day-old) in infected mice; type: in vivo; settings: single 400 mg/kg per os; for % reduction of adult worms growth at day 49 after per os application of 400 mg/kg, TWR (%): 49-day-old adults, total worm reduction rate; for Adult worms day 49, per os 400 mg/kg, DEAD WORM (%): percentage of dead worm in the liver
Experimental: Mice were infected with 100 Schistosoma mansoni cercariae on day 49 post-treatment. Each group was treated per os with OZ compounds at single doses of 200, 400, and 600 mg/kg. Untreated mice served as the control. All groups were killed 4 weeks after treatment and the liver and intestine were removed and separated. The liver and intestine were compressed and alive male and female worms could be seen and counted.

[5] = test system: P. berghei ANKA strain; test: Divided 3x10 mg/kg vs single 1x30 mg/kg po dose in infected mice; type: in vivo, Plasmodium berghei; settings: for Survival (days) 3 × 10 mg/kg p.o. SSV / Activity (%) 3 × 10 mg/kg p.o. SSV: 10 mg/kg po on days 1, 2, 3 post-infection
Experimental: (§2) Moro NMRI male mice (Fu Albino specific pathogen free) weighing 18±2 g were infected intravenously (i.v.) with 2×10^7 P. berghei ANKA strain-infected erythrocytes from donor mice on day 0 of the experiment. From donor mice with circa 30% parasitemia, heparinized blood was taken and diluted in physiological saline to 10^8 parasitized erythrocytes per ml. An aliquot (0.2 ml) of this suspension was injected i.v. into experimental and control groups of mice. […] Throughout the experiments, mice were kept in groups of three or five animals in Makrolon type II cages in an air-conditioned animal room at 22 to 23° C.
(§3) They were administered per os (p.o.) in a total volume of 0.01 ml per gram of mouse. The activity of the compound was determined by a variety of methods outlined in subsequent sections. Survival time was also recorded, and survival to day 30 post-infection was considered to be a cure.
The first experiment conducted consisted of administration of a divided 3×10 mg/kg p.o. dose administered on days 1, 2, and 3 post-infection vs. a single 1×30 mg/kg po dose administered on day 1 post-infection. On day 4 post-infection, blood smears of all animals were prepared and stained with Giemsa. […] Compounds were administered orally in the SSV vehicle.

[6] = test system: P. berghei ANKA strain; test: Divided 3x3 mg/kg and 3x1 mg/kg po doses in infected mice; type: in vivo, Plasmodium berghei; settings: for Cures: 3 mg/kg, 720 h
Experimental: as §2, §3
The second experiment consists of administration of divided 3×3 mg/kg and 3×1 mg/kg po doses administered on days 1, 2, and 3 post-infection. On day 4 post-infection, blood smears of all animals were prepared and stained with Giemsa. […] Compounds were administered orally in the SSV vehicle.

[7] = test system: P. berghei ANKA strain; test: Prophylactic activity, single 100 mg/kg po at various times before infection; type: in vivo, Plasmodium berghei; settings: for Prophylactic Activity (%) 72 h: po, 100 mg/kg; for Prophylactic Activity (%) 24 h: single 100 mg/kg po 24 h before infection; for Prophylactic Activity (%) 24 h / Prophylactic Activity (%) 48 h / Prophylactic Activity (%) 0 h: parasitemia reduction on day 3 post-infection; for Prophylactic Activity (%) 48 h: single 100 mg/kg po 48 h before infection; for Prophylactic Activity (%) 0 h: single 100 mg/kg po at 0 h
Experimental: as §2
Prophylactic activities of the compounds were compared after administering po single dose of 100 mg/kg to different groups of five animals at various times before infection. All groups including an untreated control group, were then infected at the same time. Parasitemia was determined for each animal on day 3 post-infection, and percent of reduction of the level of parasitemia compared to levels for animals given no drug is determined.

[8] = 3 × 1 mg/kg p.o. SSV on days 1, 2, 3 post-infection
[9] = 3 × 3 mg/kg p.o. SSV on days 1, 2, 3 post-infection
[10] = 3 × 3 mg/kg p.o. SSV on days 1, 2, 3 post-infection, percent reduction of parasitemia vs control on day 4

Compound	IC50 [1]	IC50 [2]	Survival (days) 3 mg/kg SSV po [3]	Activity (%) 3 mg/kg SSV po [3]	Survival (days) 10 mg/kg SSV po [3]	Activity (%) 10 mg/kg SSV po [3]	% reduction of adult worms growth at day 49 after per os application of 400 mg/kg, TWR (%) [4]	Adult worms day 49, per os 400 mg/kg, DEAD WORM (%) [4]	Survival (days) 3 × 10 mg/kg p.o. SSV [5]	Activity (%) 3 × 10 mg/kg p.o. SSV ([5]; parasitemia reduction on day 4)	Survival [6, 8]	Survival [6, 9]	Activity (%) [6, 10]	Activity (%) ([6]; po, 1 mg/kg, 96 h)	Cures ([6]; po)	Prophylactic Activity (%) 72 h [7]	Prophylactic Activity (%) 24 h [7]	Prophylactic Activity (%) 48 h [7]	Prophylactic Activity (%) 0 h [7]	other results
NCC(=O)NC[C@H]1CC[C@]2(CC1)OO[C@]1(O2)C2CC3CC(C2)CC1C3 [OZ271]	0.36 ng/mL (≈ 1.03 nM)	0.29 ng/mL (≈ 0.827 nM)	8.6 days	99.52%	8.7 days	99.93%	0%	6%	27.8 days	100%	8.8 days	16.2 days	99.99%	87%	0\5	99.89%	100%	99.98%	100%	Survival (days) 1 × 30 mg/kg p.o. SSV ([5]; single 30 mg/kg po on day 1 post-infection): 14 days; Activity (%) 1 × 30 mg/kg p.o. SSV ([5]; single 30 mg/kg po on day 1 post-infection, parasitemia reduction on day 4): 99.97%; Cures 1 × 30 mg/kg p.o. SSV ([5]; single 30 mg/kg po, cure = survival to day 30 post-infection): 0/5; Duration of prophylactic protection ([7]; single 100 mg/kg po): 3 days
CC(C)(N)C(=O)NC[C@H]1CC[C@]2(CC1)OOC1(O2)C2CC3CC(C2)CC1C3 (stereo partly shown) [OZ281]	0.5 ng/mL (≈ 1.32 nM)	0.3 ng/mL (≈ 0.793 nM)		96%	8.7 days	99.87%	12%	15%			13 days	12.4 days	100%	92%	0\5	8%	99.23%	45%	100%	
c1cc(OC[C@H]2CC[C@]3(CC2)OO[C@]2(O3)C3CC4CC(C3)CC2C4)ccn1 [OZ301]			8.4 days	97%	11.8 days	100%			>30 days	100%	8.8 days	23 days	100%							Cured infected mice at the 3×3 mg/kg dose ([6]; 3 mg/kg po (SSV) on days 1, 2, 3 post-infection): 1/5; Activity (%) ([6]; 3 × 1 mg/kg p.o. SSV on days 1, 2, 3 post-infection, percent reduction of parasitemia vs control on day 4): 58%
Cc1ccc(S(=O)(=O)O)cc1.N[C@H]1CC[C@H](NC(=O)C[C@H]2CC[C@]3(CC2)OO[C@]2(O3)C3CC4CC(C3)CC2C4)CC1 [OZ315]			9.6 days	92%	11.2 days	99.97%			>30 days	100%	12.2 days	22 days	99.99%	81%	0\5					
